“Also recorded” adds a separate entry of the source.
Test system: HCC1806 cells
Assay: TMT MS quantitative proteomics of live cells treated with FragTAC probes (HCC1806)
Format: cell-based, Homo Sapiens
Settings: value = downregulated protein
Protocol: Mammalian cell culture: MDA-MB-231 cells (ATCC) were maintained in DMEM supplemented with 10% (v/v) fetal bovine serum (FBS), 1% (v/v) penicillin/streptomycin, and 2 mM glutamine. HCC1806 cells (ATCC) were maintained in RPMI supplemented with 10% (v/v) fetal bovine serum (FBS), 1% (v/v) penicillin/streptomycin, and 2 mM glutamine. All cell lines were grown at 37° C. in a humidified 5% CO2 atmosphere.
Treatment of Live Cells with FragTAC Probes: Separate 6 cm (for gel-based analyses) or 10 cm (for MS-based analyses) dishes of MDA-MB-231 cells or HCC1806 cells were grown to 80-95% confluency with DMEM media and RPMI media respectively. The growth medium was aspirated, and the cells were washed with Dulbecco's phosphate buffered saline (DPBS). The cells were incubated with serum-free media containing fragment probes (200 μM) or control probes (200 μM) for 6 hours at 37° C. under a 5% CO2 atmosphere. The cultures were scraped, washed with cold DPBS, and collected into 15 mL centrifuge tubes, then transferred to 1.5 mL Eppendorf tubes. The cell suspensions were centrifuged (1,400 g, 3 min) and the pellets were stored at −80° C. until the next stage of processing.
Sample preparation for TMT MS Quantitative Proteomics: For treatment of cell lysates, cells were collected, cell pellets were resuspended in 100 μL DPBS containing 1× Halt protease inhibitor cocktail, and lysed by sonication (15 ms on, 40 ms off, 15% amplitude, 1 s total). Protein concentrations were normalized (2 mg/mL in 100 μL with cold DPBS) using the Lowry Protein Assay (Pierce). Urea (48 mg) was weighed for each sample in 2 mL LoBind Eppendorf tubes and cell lysates (100 μL=200 μg) were added (final urea concentration=8 M). Pellets were resuspended in a freshly prepared 1:1 solution (50 μL) TCEP (200 mM in DPBS) and K2CO3 (600 mM in DPBS) and incubated (30 min, 37° C.) while shaking. After reaction, a solution of freshly prepared iodoacetamide (70 μL, 400 mM in DPBS) was added and incubated for 30 min at room temperature while protected from light. After reaction, 1.8 mL of cold 3:1:2 MeOH/CHCl3/H2O solution was added to each tube, and the samples were centrifuged (10,000×g, 10 min, 4° C.), forming a disc. The supernatant was carefully removed, MeOH (600 μL) was added, samples were centrifuged as previously described and the supernatant was removed. Cell pellets were resuspended in TEAB (160 μL, 100 mM, pH 8.5) and sonicated as described previously. Endoproteinase LysC (20 μL, ½ vial, 10 μg dissolved in 220 μL of 100 mM TEAB pH 8.5) was added to each and incubated at 37° C. for 2 h with shaking. Sequencing-grade modified porcine trypsin (20 μL, 1 vial, 20 μg dissolved in 220 μL of 100 mM TEAB pH 8.5), a solution of Protease Max (2 μL, 1% (w/v) in 100 mM TEAB pH 8.5) and a solution of CaCl2) (2 μL, 100 mM) were added to the samples and incubated at 37° C. overnight (14 h) with shaking. The digest was separated by centrifugation (12,000×g, 10 min, 4° C.). Peptide concentration was determined using Pierce Quantitative Fluorometric Peptide Assay Kit (Thermo Fisher Scientific, 23290) according to manufacturer's instructions. MS-grade acetonitrile (12.5 μL) was added to each and samples were labeled with respective TMT 10 plex isotope (8 μL, 20 μg/μL) for 1 h with occasional vortexing at RT. To quench, hydroxylamine (3 μL, 5% v/v) was added to each sample, vortexed, and incubated for 15 min at RT. Formic acid (5 μL) was added to each tube to acidify and the samples were dried under vacuum centrifugation. The samples were combined by redissolving the contents of one tube in a solution of trifluoroacetic acid (TFA, 400 μL, 0.1% in water) and transferred into each sample until all samples were redissolved. The stepwise process was repeated with formic acid (Buffer A, 200 μL, 0.1% in water) for a final volume of 600 μL. […]

SMILES	Proteins targeted (downregulated) by FragTAC probe (TMT proteomics, targets with 2 unique peptides or more and depleted 2-fold or more relative to DMSO control (P value <0.05))	Proteins targeted (downregulated) by FragTAC probe (protein with 2 unique peptides or more, depleted 2-fold or more relative to DMSO control (P value <0.05))
Cc1ncsc1-c1ccc(CNC(=O)[C@@H]2C[C@@H](O)CN2C(=O)[C@@H](NC(=O)CCOCCOCCC(=O)N[C@H]2CCCc3ccccc32)C(C)(C)C)cc1 [LPC049, (2S,4R)-1-((S)-3,3-dimethyl-2-(3-(2-(3-oxo-3-(((S)-1,2,3,4-tetrahydronaphthalen-1-yl)amino)propoxy)ethoxy)propanamido)butanoyl)-4-hydroxy-N-(4-(4-methylthiazol-5-yl)benzyl)pyrrolidine-2-carboxamide]	TMBIM6; also recorded: TOR4A	
Cc1ncsc1-c1ccc(CNC(=O)[C@@H]2C[C@@H](O)CN2C(=O)[C@@H](NC(=O)CCOCCOCCOCCNC(=O)CCc2nc(-c3ccccc3)c(-c3ccccc3)o2)C(C)(C)C)cc1 [IF-072, (2S,4R)-1-((S)-2-(tert-butyl)-19-(4,5-diphenyloxazol-2-yl)-4,17-dioxo-7,10,13-trioxa-3,16-diazanonadecanoyl)-4-hydroxy-N-(4-(4-methylthiazol-5-yl)benzyl)pyrrolidine-2-carboxamide]		ZC3H14; also recorded: ZNF800

From patent US20250276069A1, “HETEROBIFUNCTIONAL COMPOSITIONS FOR TARGETED PROTEIN DEGRADATION AND METHODS FOR THEIR USE” (THE SCRIPPS RESEARCH INSTITUTE, priority 2021, published 2025)
